What all share (type): in vivo
For experiment [1], the system named is Japanese bulrush (Scirpus juncoides Roxb.). Put plainly: Test Example 1: herbicidal effect by soil application to paddy field. Particulars: paddy field soil application; active ingredient 1,000 g per 1 hectare; wettable powder added dropwise to water surface the day after sowing; examined on the 21st day after application. A digest of the protocol:
(§1)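 Plants were sown in flooded (3 cm) paddy soil and evaluated for herbicidal effect 21 days after soil application in a greenhouse.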

For experiment [2], the system named is early watergrass (Echinochloa oryzicola Vasing). Described as above. As to conditions: paddy field soil application; active ingredient 1,000 g per 1 hectare; wettable powder added dropwise to water surface the day after sowing; examined on the 21st day after application. The essentials: as §1
In experiment [3] the test system is heartshape false pickerelweed (Monochoria vaginalis (Burm.f.) C.Presl). The description is as above. As to conditions: paddy field soil application; active ingredient 1,000 g per 1 hectare; wettable powder added dropwise to water surface the day after sowing; examined on the 21st day after application. The essentials: as §1
The subject of experiment [4] is barnyardgrass (Echinochloa crus-galli (L.) P. Beauv. var. crus-galli). Briefly: Test Example 2: herbicidal effect by soil application to upland field. As to conditions: soil surface spray, upland field soil, 1,000 g active ingredient per hectare, 21st day after application. A digest of the protocol: (§2)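 Using a small sprayer, we treat the soil surface of pots just after sowing and covering seeds. The aqueous wettable powder supplies 1,000 g a.i./ha in 1,000 L water/ha; after greenhouse growth, injury is scored on day 21 using a standard rating.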

In experiment [5] the test system is green foxtail (Setaria viridis (L.) P. Beauv.). Described as above. Particulars: soil surface spray, upland field soil, 1,000 g active ingredient per hectare, 21st day after application. The essentials: as §2
Experiment [6] deals with slender amaranth (Amaranthus viridis L.). Described as above. Particulars: soil surface spray, upland field soil, 1,000 g active ingredient per hectare, 21st day after application. The essentials: as §2
The subject of experiment [7] is velvetleaf (Abutilon theophrasti medicus). Described as above. As to conditions: soil surface spray, upland field soil, 1,000 g active ingredient per hectare, 21st day after application. The essentials: as §2
For experiment [8], the system named is barnyardgrass (Echinochloa crus-galli (L.) P. Beauv. var. crus-galli). Put plainly: Test Example 3: herbicidal effect by application to upland field (foliage treatment). As to conditions: foliage treatment, 1,000 g active ingredient per 1 hectare, 14th day after application, greenhouse. A digest of the protocol:
(§3)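 Seeds went into pots of field soil and grew under glass for two weeks. The whole plant was then sprayed from above with diluted wettable powder delivering 1,000 g/ha of active ingredient. Plants stayed in the greenhouse, and injury was graded against a standard 14 days after spraying.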

Experiment [9] relates to green foxtail (Setaria viridis (L.) P. Beauv.). The experiment is described as above. As to conditions: foliage treatment, 1,000 g active ingredient per 1 hectare, 14th day after application, greenhouse. The essentials:
as §3

The subject of experiment [10] is slender amaranth (Amaranthus viridis L.). Described as above. As to conditions: foliage treatment, 1,000 g active ingredient per 1 hectare, 14th day after application, greenhouse. A digest of the protocol: as §3
Experiment [11] concerns velvetleaf (Abutilon theophrasti medicus). The description is as above. Particulars: foliage treatment, 1,000 g active ingredient per 1 hectare, 14th day after application, greenhouse. A digest of the protocol: as §3

Structures are written as SMILES.

As to `CCCS(=O)(=O)Oc1c(C(=O)c2ccc(C(F)(F)F)n(-c3ccc4c(c3)OCO4)c2=O)cnn1CC` [IV-99], the “herbicidal effect, Scirpus juncoides Roxb.” value in experiment [1] is 5 (90% or more of herbicidal effect and crop phytotoxicity). Besides, the “herbicidal effect, Echinochloa oryzicola Vasing” value in experiment [2] was 5 (90% or more of herbicidal effect and crop phytotoxicity). For the same compound, in experiment [3], the “herbicidal effect, Monochoria vaginalis (Burm. f.) C. Presl” value (“herbicidal effect, Monochoria vaginalis” for short) is 5 (90% or more of herbicidal effect and crop phytotoxicity). In addition, in experiment [4], the “herbicidal effect (index), Barnyardgrass” value was 5 (90% or more of herbicidal effect and crop phytotoxicity). Also, in [5], the “herbicidal effect (index), Green Foxtail” value was 3 (50 to less than 70% of herbicidal effect and crop phytotoxicity). In addition, the “herbicidal effect (index), Slender Amaranth” value in experiment [6] was 4 (70 to less than 90% of herbicidal effect and crop phytotoxicity). Moreover, the “herbicidal effect (index), Velvetleaf” value in [7] was 4 (70 to less than 90% of herbicidal effect and crop phytotoxicity). For the same compound, in experiment [8], the “herbicidal effect, Barnyardgrass” value was 5 (90% or more of herbicidal effect and crop phytotoxicity). For the same compound, in [9], the “herbicidal effect, Green Foxtail” value was 5 (90% or more of herbicidal effect and crop phytotoxicity). For the same compound, the “herbicidal effect, Slender Amaranth” value in experiment [10] was 5 (90% or more of herbicidal effect and crop phytotoxicity). Also, in experiment [11], the “herbicidal effect, Velvetleaf” value is 5 (90% or more of herbicidal effect and crop phytotoxicity).

For `Cn1ncc(C(=O)c2ccc(C(F)(F)F)n(-c3ccc4c(c3)OCCO4)c2=O)c1O` [IV-101], the “herbicidal effect, Scirpus juncoides Roxb.” value in experiment [1] was 5 (90% or more of herbicidal effect and crop phytotoxicity). In addition, in experiment [2], the “herbicidal effect, Echinochloa oryzicola Vasing” value is 5 (90% or more of herbicidal effect and crop phytotoxicity). Moreover, the “herbicidal effect, Monochoria vaginalis” value in [3] was 5 (90% or more of herbicidal effect and crop phytotoxicity). Moreover, the “herbicidal effect (index), Barnyardgrass” value in [4] was 5 (90% or more of herbicidal effect and crop phytotoxicity). Also, in experiment [5], the “herbicidal effect (index), Green Foxtail” value is 4 (70 to less than 90% of herbicidal effect and crop phytotoxicity). Further, in experiment [6], the “herbicidal effect (index), Slender Amaranth” value was 5 (90% or more of herbicidal effect and crop phytotoxicity). Besides, the “herbicidal effect (index), Velvetleaf” value in experiment [7] is 4 (70 to less than 90% of herbicidal effect and crop phytotoxicity). Also, the “herbicidal effect, Barnyardgrass” value in experiment [8] was 5 (90% or more of herbicidal effect and crop phytotoxicity). Also, the “herbicidal effect, Green Foxtail” value in [9] is 3 (50 to less than 70% of herbicidal effect and crop phytotoxicity). Moreover, the “herbicidal effect, Slender Amaranth” value in experiment [10] was 4 (70 to less than 90% of herbicidal effect and crop phytotoxicity). In [11], the “herbicidal effect, Velvetleaf” value is 4 (70 to less than 90% of herbicidal effect and crop phytotoxicity).

For `CCCS(=O)(=O)Oc1c(C(=O)c2ccc(C(F)(F)F)n(CC3CC(C)=NO3)c2=O)cnn1CC` (centres unmarked) [IV-106], the “herbicidal effect, Scirpus juncoides Roxb.” value in experiment [1] is 5 (90% or more of herbicidal effect and crop phytotoxicity). In addition, the “herbicidal effect, Echinochloa oryzicola Vasing” value in [2] was 5 (90% or more of herbicidal effect and crop phytotoxicity). Besides, in [3], the “herbicidal effect, Monochoria vaginalis” value was 5 (90% or more of herbicidal effect and crop phytotoxicity). For the same compound, in experiment [4], the “herbicidal effect (index), Barnyardgrass” value is 5 (90% or more of herbicidal effect and crop phytotoxicity). Moreover, the “herbicidal effect (index), Green Foxtail” value in [5] was 5 (90% or more of herbicidal effect and crop phytotoxicity). Besides, the “herbicidal effect (index), Slender Amaranth” value in [6] is 5 (90% or more of herbicidal effect and crop phytotoxicity). Moreover, the “herbicidal effect (index), Velvetleaf” value in experiment [7] was 5 (90% or more of herbicidal effect and crop phytotoxicity). For the same compound, in experiment [8], the “herbicidal effect, Barnyardgrass” value is 5 (90% or more of herbicidal effect and crop phytotoxicity). Besides, the “herbicidal effect, Green Foxtail” value in experiment [9] was 5 (90% or more of herbicidal effect and crop phytotoxicity). In addition, the “herbicidal effect, Slender Amaranth” value in experiment [10] was 5 (90% or more of herbicidal effect and crop phytotoxicity). Also, in [11], the “herbicidal effect, Velvetleaf” value is 5 (90% or more of herbicidal effect and crop phytotoxicity).

As to `CCn1ncc(C(=O)c2ccc(C(F)(F)F)n(CC3CC(C)=NO3)c2=O)c1O` (centres unmarked) [IV-107], the “herbicidal effect, Scirpus juncoides Roxb.” value in experiment [1] is 5 (90% or more of herbicidal effect and crop phytotoxicity). In addition, the “herbicidal effect, Echinochloa oryzicola Vasing” value in [2] was 5 (90% or more of herbicidal effect and crop phytotoxicity). The “herbicidal effect, Monochoria vaginalis” value in experiment [3] was 5 (90% or more of herbicidal effect and crop phytotoxicity). The “herbicidal effect (index), Barnyardgrass” value in experiment [4] is 5 (90% or more of herbicidal effect and crop phytotoxicity). Also, the “herbicidal effect (index), Green Foxtail” value in experiment [5] is 5 (90% or more of herbicidal effect and crop phytotoxicity). In addition, the “herbicidal effect (index), Slender Amaranth” value in experiment [6] was 5 (90% or more of herbicidal effect and crop phytotoxicity). The “herbicidal effect (index), Velvetleaf” value in [7] is 5 (90% or more of herbicidal effect and crop phytotoxicity). For the same compound, in experiment [8], the “herbicidal effect, Barnyardgrass” value was 5 (90% or more of herbicidal effect and crop phytotoxicity). Besides, in experiment [9], the “herbicidal effect, Green Foxtail” value is 5 (90% or more of herbicidal effect and crop phytotoxicity). Further, the “herbicidal effect, Slender Amaranth” value in experiment [10] is 5 (90% or more of herbicidal effect and crop phytotoxicity). Moreover, in [11], the “herbicidal effect, Velvetleaf” value was 5 (90% or more of herbicidal effect and crop phytotoxicity).

Turning to `CCCS(=O)(=O)Oc1c(C(=O)c2ccc(C(F)(F)F)n(CC(OC)OC)c2=O)cnn1C` [IV-118], the “herbicidal effect, Scirpus juncoides Roxb.” value in experiment [1] is 5 (90% or more of herbicidal effect and crop phytotoxicity). Moreover, the “herbicidal effect, Echinochloa oryzicola Vasing” value in experiment [2] was 5 (90% or more of herbicidal effect and crop phytotoxicity). The “herbicidal effect, Monochoria vaginalis” value in [3] was 5 (90% or more of herbicidal effect and crop phytotoxicity). In experiment [4], the “herbicidal effect (index), Barnyardgrass” value is 5 (90% or more of herbicidal effect and crop phytotoxicity). In experiment [5], the “herbicidal effect (index), Green Foxtail” value is 5 (90% or more of herbicidal effect and crop phytotoxicity). For the same compound, in experiment [6], the “herbicidal effect (index), Slender Amaranth” value is 5 (90% or more of herbicidal effect and crop phytotoxicity). Also, the “herbicidal effect (index), Velvetleaf” value in [7] was 5 (90% or more of herbicidal effect and crop phytotoxicity). Moreover, the “herbicidal effect, Barnyardgrass” value in [8] was 5 (90% or more of herbicidal effect and crop phytotoxicity). In addition, the “herbicidal effect, Green Foxtail” value in experiment [9] was 5 (90% or more of herbicidal effect and crop phytotoxicity). For the same compound, the “herbicidal effect, Slender Amaranth” value in [10] was 5 (90% or more of herbicidal effect and crop phytotoxicity). Besides, the “herbicidal effect, Velvetleaf” value in experiment [11] was 5 (90% or more of herbicidal effect and crop phytotoxicity).

As to `Cn1ncc(C(=O)c2ccc(C(F)(F)F)n(CC3OCCO3)c2=O)c1O` [IV-119], in [1], the “herbicidal effect, Scirpus juncoides Roxb.” value was 5 (90% or more of herbicidal effect and crop phytotoxicity). Moreover, the “herbicidal effect, Echinochloa oryzicola Vasing” value in experiment [2] is 5 (90% or more of herbicidal effect and crop phytotoxicity). In experiment [3], the “herbicidal effect, Monochoria vaginalis” value was 5 (90% or more of herbicidal effect and crop phytotoxicity). The “herbicidal effect (index), Barnyardgrass” value in experiment [4] was 5 (90% or more of herbicidal effect and crop phytotoxicity). Also, the “herbicidal effect (index), Green Foxtail” value in experiment [5] is 5 (90% or more of herbicidal effect and crop phytotoxicity). Besides, in experiment [6], the “herbicidal effect (index), Slender Amaranth” value was 5 (90% or more of herbicidal effect and crop phytotoxicity). The “herbicidal effect (index), Velvetleaf” value in [7] was 5 (90% or more of herbicidal effect and crop phytotoxicity). Besides, in experiment [8], the “herbicidal effect, Barnyardgrass” value is 5 (90% or more of herbicidal effect and crop phytotoxicity). Further, the “herbicidal effect, Green Foxtail” value in [9] was 4 (70 to less than 90% of herbicidal effect and crop phytotoxicity). Besides, the “herbicidal effect, Slender Amaranth” value in experiment [10] was 5 (90% or more of herbicidal effect and crop phytotoxicity). Besides, in experiment [11], the “herbicidal effect, Velvetleaf” value is 4 (70 to less than 90% of herbicidal effect and crop phytotoxicity).

For the compound `Cn1ncc(C(=O)c2ccc(C(F)(F)F)n(CC3CCCO3)c2=O)c1O` (centres unmarked) [IV-129], in experiment [1], the “herbicidal effect, Scirpus juncoides Roxb.” value was 5 (90% or more of herbicidal effect and crop phytotoxicity). In addition, the “herbicidal effect, Echinochloa oryzicola Vasing” value in [2] is 5 (90% or more of herbicidal effect and crop phytotoxicity). Also, in experiment [3], the “herbicidal effect, Monochoria vaginalis” value was 5 (90% or more of herbicidal effect and crop phytotoxicity). The “herbicidal effect (index), Barnyardgrass” value in experiment [4] is 4 (70 to less than 90% of herbicidal effect and crop phytotoxicity). Besides, the “herbicidal effect (index), Green Foxtail” value in [5] is 3 (50 to less than 70% of herbicidal effect and crop phytotoxicity). Further, the “herbicidal effect (index), Slender Amaranth” value in experiment [6] was 5 (90% or more of herbicidal effect and crop phytotoxicity). Also, in experiment [7], the “herbicidal effect (index), Velvetleaf” value is 5 (90% or more of herbicidal effect and crop phytotoxicity). The “herbicidal effect, Barnyardgrass” value in experiment [8] was 5 (90% or more of herbicidal effect and crop phytotoxicity). Also, in experiment [9], the “herbicidal effect, Green Foxtail” value is 4 (70 to less than 90% of herbicidal effect and crop phytotoxicity). Also, the “herbicidal effect, Slender Amaranth” value in experiment [10] was 5 (90% or more of herbicidal effect and crop phytotoxicity). Further, the “herbicidal effect, Velvetleaf” value in experiment [11] was 5 (90% or more of herbicidal effect and crop phytotoxicity).

Source of the values: US8076487B2, “Pyridone derivative and herbicide” (Kumiai Chemical Industry Co., Ltd., priority 2006, dated 2011).
